US7342089B2, “Cyclic peptides for treatment for cachexia” (Palatin Technologies, Inc., priority 2002, dated 2008)
Positions of bridges follow the written chain, without caps; N, C: chain ends. Non-standard residues stand in square brackets, D forms with d. Residues, ends and D or L forms follow the SMILES beside them. 2Nal = N[C@@H](Cc1ccc2ccccc2c1)C(=O)O; d2Nal = N[C@H](Cc1ccc2ccccc2c1)C(=O)O; Nle = CCCC[C@H](N)C(=O)O

Tests used:
rats = experiment: ICV feeding studies; type: in vivo, rat; conditions: lowest value of multiple tests, parentheses = decrease
Method: (§1) Change in food intake and body weight is evaluated for selected peptides. Rats with indwelling intracerebroventricular cannulas (ICV rats) are obtained from Hilltop Lab Animals, Inc. (Scottdale, Pa.). Animals are individually housed in conventional plexiglass hanging cages and maintained on a controlled 12 hour on/off light cycle. Water and powdered (LabDiet, 5P00 Prolab RMH 3000) or pelleted (Harlan Teklad 2018 18% Protein Rodent Diet) food is provided ad libitum. For 1 week before treatment, 24-hour food intake and body weight change is recorded to assess a baseline for the group during vehicle treatment. The rats are dosed ICV with vehicle or selected cyclic peptides (0.3-3 nmol). The changes in body weight and food intake for the 24 hour period after dosing are determined. The changes in body weight and food intake for the 48 hour and 72 hour periods after dosing are also measured to determine reversal of changes in body weight and food intake effects back to baseline levels.
A series of ICV feeding studies were conducted on rats. All animals were dosed on the first day with saline ICV, and given a pre-weighed food bowl with food weight recorded at 2 and 21 hours post-ICV injection. On day 2, animals were randomized based on the 21 hour food consumption, with animals eliminated due to low food consumption or food spills. […] Food weights were again recorded at 2, 4, 21 and 24 hours post-icv injection. In most instances, multiple different tests were conducted which each group containing between 8 and 12 members; the lowest value is shown below. Values are shown as percent increase (decrease) in aggregate food intake. “ND” means no test was conducted at that dose level.

[1] = target: T1, MC1-R (B-16 mouse melanoma cells) (Mus musculus, UniProt Q01727); experiment: cAMP assay for agonist/antagonist status, MC1-R; type: cell-based; conditions: for EC50: read-out: EC50 as to MC1-R
Method: Cells are incubated with the test peptides in the presence or absence of α-MSH for 1 hour at 37° C. cAMP levels in the cell lysates are measured using the EIA kit (Amersham). Data analysis and EC50 values are determined using nonlinear regression analysis with Prism Graph-Pad software.
The agonist/antagonist status with respect to MC1-R, MC4-R and MC5-R of certain peptides of the invention is determined. Antagonistic activity is determined by measuring the inhibition of α-MSH-induced or NDP-α-MSH-induced cAMP levels following exposure to the peptides as in the preceding descriptions.

[2] = target: T1, MC1-R (B-16 mouse melanoma cells); experiment: Competitive inhibition binding assay using [I125]-NDP-α-MSH, MC1-R; conditions: B-16 mouse melanoma cell membranes
Method: Each assay is conducted in triplicate.

hMC4-R = target: T2, hMC4-R (Homo sapiens, UniProt P32245); experiment: Competitive inhibition binding assay using [I125]-NDP-α-MSH, hMC4-R; conditions: HEK-293 membranes, read-out: Ki MC4-R
T2 construct: expressed in transfected cells; host or cells: HEK-293

hMC4-R (HEK-293 cells) = target: T3, hMC4-R (HEK-293 cells) (Homo sapiens, UniProt P32245); experiment: cAMP assay for agonist/antagonist status and functional antagonism, MC4-R; type: cell-based; conditions: for agonist/antagonist status as to MC4-R: cAMP assay; for Kb: functional antagonism, Schild's analysis vs NDP-α-MSH, read-out: pA2 value as to MC4-R (converted)
T3 construct: expressed in transfected cells; host or cells: HEK-293
Method: Confluent HEK-293 cells over-expressing MC4-R are detached by enzyme free cell suspension buffer. […] The cells are plated in a 96 well plates at a density of 0.5×10^5 cells per well and pre-incubated for 30 minutes. The cells are then challenged with the test peptides dissolved in dimethylsulfoxide (DMSO) at a concentration range of 0.05-5000 nM in a total assay volume of 200 μL for 1 hour at 37° C. The concentration of DMSO is always held at 1% in the assay mixture. […] At the end of the incubation period the cells are disrupted by the addition of 50 μL lysis buffer from the cAMP EIA kit (Amersham). Complete rupture of the cells is ensured by pipetting the cells up and down multiple times. cAMP levels in the cell lysates are measured after appropriate dilution using the EIA kit (Amersham) method. Data analysis and EC50 values are determined by using nonlinear regression analysis with the Prism Graph-Pad software. […] Peptides with a response ratio of less than 0.1 are evaluated for antagonistic activity.
Briefly, cells are pre-incubated for 30 minutes with the test peptides at concentrations between 0.5 nM and 5000 nM. […] For Schild's analysis, the interactions are studied using at least 3 concentrations of the peptides, separated by a log unit, over a full range of the agonist (0.005-5000 nM). cAMP levels is measured in the cell lysates after appropriate dilution. Nonlinear regression analysis with the Prism Graph-Pad software is used for Schild's analysis and to obtain EC50 values. pA2 values are derived from the Schild's plot.

hMC3-R = target: T4, hMC3-R (Homo sapiens, UniProt P41968); experiment: Competitive inhibition binding assay using [I125]-NDP-α-MSH, hMC3-R; conditions: HEK-293 membranes, read-out: Ki MC3-R
T4 construct: expressed in transfected cells; host or cells: HEK-293

male Sprague-Dawley rats = experiment: IV food intake and body weight change; type: in vivo, rat; conditions: 1 mg/kg IV, 24 hour period (FIG. 1)
Method: as §1, with “peptides. Male Sprague-Dawley rats” for “peptides. Rats with indwelling intracerebroventricular cannulas (ICV rats)”, “from Taconic (Germantown, N.Y.).” for “from Hilltop Lab Animals, Inc. (Scottdale, Pa.).”, “dosed IV or IP” for “dosed ICV”, “selected” for “selected cyclic”, “peptides (0.5-3 mg/kg).” for “peptides (0.3-3 nmol).”, “to determined” for “to determine”
Briefly, male Sprague-Dawley rats (300-350 g) were individually housed in shoe box cages with a 12 hr light/dark period. Food intake and body weights were monitored for 24 hours prior to the start of the study. Rats were randomized by body weight and then dosed IV just before lights-off with the compound of Example 12 or the same volume of vehicle. A pre-weighed amount of food was provided and food intake was determined at 2, 4, 20 and 24 hours. […]

hMC5-R = target: T5, hMC5-R (Homo sapiens, UniProt P33032); experiment: Competitive inhibition binding assay using [I125]-NDP-α-MSH, hMC5-R; conditions: HEK-293 membranes, read-out: Ki MC5-R
T5 construct: expressed in transfected cells; host or cells: HEK-293

hMC3-R (HEK-293 cells) = target: T6, hMC3-R (HEK-293 cells) (Homo sapiens, UniProt P41968); experiment: cAMP assay for agonist/antagonist status and functional antagonism, MC3-R; type: cell-based; conditions: cAMP assay
T6 construct: expressed in transfected cells; host or cells: HEK-293
T6 sequence (P41968 whole entry): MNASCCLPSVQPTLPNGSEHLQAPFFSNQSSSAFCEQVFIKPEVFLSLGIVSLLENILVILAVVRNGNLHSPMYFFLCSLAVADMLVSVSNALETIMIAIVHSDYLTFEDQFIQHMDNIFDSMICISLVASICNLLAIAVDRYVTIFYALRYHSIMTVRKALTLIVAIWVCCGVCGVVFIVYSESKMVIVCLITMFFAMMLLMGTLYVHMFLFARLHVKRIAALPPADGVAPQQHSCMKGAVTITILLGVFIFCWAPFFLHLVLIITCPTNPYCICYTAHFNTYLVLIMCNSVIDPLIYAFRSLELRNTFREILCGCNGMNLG
Method: Assay for neutral antagonist.
Experimental details are similar to the analysis for agonistic activity and are described above. Briefly, cells are pre-incubated for 30 minutes with the test peptides at concentrations between 0.5 nM and 5000 nM. […] For Schild's analysis, the interactions are studied using at least 3 concentrations of the peptides, separated by a log unit, over a full range of the agonist (0.005-5000 nM). cAMP levels is measured in the cell lysates after appropriate dilution. Nonlinear regression analysis with the Prism Graph-Pad software is used for Schild's analysis and to obtain EC50 values. pA2 values are derived from the Schild's plot.

T3 sequence (P32245 whole entry): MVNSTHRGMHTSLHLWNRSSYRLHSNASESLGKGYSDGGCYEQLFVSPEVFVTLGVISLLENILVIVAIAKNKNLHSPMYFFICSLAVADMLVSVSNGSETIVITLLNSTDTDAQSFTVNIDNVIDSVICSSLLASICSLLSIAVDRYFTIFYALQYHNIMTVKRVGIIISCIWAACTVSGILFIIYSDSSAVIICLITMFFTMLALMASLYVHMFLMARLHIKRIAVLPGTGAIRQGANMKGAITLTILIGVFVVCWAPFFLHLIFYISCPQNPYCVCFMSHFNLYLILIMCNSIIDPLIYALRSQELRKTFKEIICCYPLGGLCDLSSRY
T1 sequence (Q01727 whole entry): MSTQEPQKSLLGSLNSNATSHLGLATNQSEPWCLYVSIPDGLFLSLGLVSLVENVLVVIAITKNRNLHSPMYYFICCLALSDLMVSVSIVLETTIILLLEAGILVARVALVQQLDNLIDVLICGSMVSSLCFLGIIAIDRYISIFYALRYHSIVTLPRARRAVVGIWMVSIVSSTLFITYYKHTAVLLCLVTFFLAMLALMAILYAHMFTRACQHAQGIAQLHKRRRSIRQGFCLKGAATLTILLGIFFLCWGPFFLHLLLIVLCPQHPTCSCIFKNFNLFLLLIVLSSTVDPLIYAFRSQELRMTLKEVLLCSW
T5 sequence (P33032 whole entry): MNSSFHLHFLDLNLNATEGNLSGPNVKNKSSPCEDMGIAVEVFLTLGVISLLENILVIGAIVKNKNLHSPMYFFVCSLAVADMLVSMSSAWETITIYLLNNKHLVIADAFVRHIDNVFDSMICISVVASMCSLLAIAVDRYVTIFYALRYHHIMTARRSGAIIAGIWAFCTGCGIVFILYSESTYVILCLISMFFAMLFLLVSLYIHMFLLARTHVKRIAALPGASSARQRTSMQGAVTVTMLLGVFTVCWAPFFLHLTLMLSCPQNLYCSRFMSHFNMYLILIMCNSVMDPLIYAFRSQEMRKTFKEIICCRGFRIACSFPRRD
T4 sequence (P41968 whole entry): as the sequence (P41968 whole entry) above
T2 sequence (P32245 whole entry): as the sequence (P32245 whole entry) above

Row | Compound | Percent Increase (Decrease) In Aggregate Food Intake After ICV Administration of Peptide Compared to Vehicle (Saline) (rats; 1 nmol) | agonist/antagonist status as to MC1-R [1] | EC50 [1] | Ki [2] | Ki (hMC4-R) | agonist/antagonist status as to MC4-R (hMC4-R (HEK-293 cells)) | Kb (hMC4-R (HEK-293 cells)) | Ki (hMC3-R) | cumulative food intake compared to vehicle (male Sprague-Dawley rats) | Percent Increase (Decrease) In Aggregate Food Intake After ICV Administration of Peptide Compared to Vehicle (Saline) (rats; 0.3 nmol) | Ki (hMC5-R) | agonist/antagonist status as to MC3-R (hMC3-R (HEK-293 cells)) | EC50 (hMC3-R (HEK-293 cells); read-out: EC50 as to MC3-R)
1 | CCCC[C@H](NC(C)=O)C(=O)N[C@H]1CC(=O)NCCCC[C@@H](C(=O)O)NC(=O)[C@H](Cc2c[nH]c3ccccc23)NC(=O)[C@H](CCCNC(=N)N)NC(=O)[C@@H](Cc2ccc3ccccc3c2)NC(=O)[C@H](Cc2c[nH]cn2)NC1=O [Example 11, Ac-Nle-cyclo(-Asp-His-D-Nal 2-Arg-Trp-Lys)-OH] | 24% | partial agonist | 57 nM | 3 nM |  |  |  |  |  |  |  |  | 
2 | CCCC[C@H](NC(C)=O)C(=O)N[C@H]1CC(=O)NCCCC[C@@H](C(=O)O)NC(=O)[C@H](Cc2ccc3ccccc3c2)NC(=O)[C@H](CCCNC(=N)N)NC(=O)[C@@H](Cc2ccc3ccccc3c2)NC(=O)[C@H](Cc2c[nH]cn2)NC1=O [Example 12, Ac-Nle-cyclo(-Asp-His-D-Nal 2-Arg-Nal 2-Lys)-OH] (Ac-[Nle]DH[d2Nal]R[2Nal]K-OH; lactam 2-7) | 48% | partial agonist | 5 nM | 0.2 nM | 0.02 nM | antagonist | 7.59 nM | 0.3 nM | increase in food intake | 36% | 0.2 nM | antagonist | 
3 | CCCC[C@H](NC(C)=O)C(=O)N[C@H]1CC(=O)NCCCC[C@@H](C(=O)O)NC(=O)[C@H](Cc2ccc3ccccc3c2)NC(=O)[C@H](CCCNC(=N)N)NC(=O)[C@@H](Cc2ccc3ccccc3c2)NC(=O)[C@H](Cc2c[nH]c3ccccc23)NC1=O [Example 13, Ac-Nle-cyclo(-Asp-Trp-D-Nal 2-Arg-Nal 2-Lys)-OH] (Ac-[Nle]DW[d2Nal]R[2Nal]K-OH; lactam 2-7) |  | partial agonist |  | 119 nM |  |  |  |  |  |  |  |  | 
4 | CC(=O)N[C@H]1CC(=O)NCCCC[C@@H](C(=O)O)NC(=O)[C@H](Cc2c[nH]c3ccccc23)NC(=O)[C@H](CCCNC(=N)N)NC(=O)[C@@H](Cc2ccc3ccccc3c2)NC(=O)[C@H](Cc2c[nH]cn2)NC1=O [Example 14, Ac-cyclo(-Asp-His-D-Nal 2-Arg-Trp-Lys)-OH] | 16% | agonist | 4420 nM | 181 nM | 2 nM | antagonist | 186 nM | 55 nM |  |  | 191 nM | antagonist | 1 nM
